# In patent US5580895A, “1,5-benzodiazepine derivatives” (Glaxo SpA, priority 1992, dated 1996):
# Experiments:
# CCK-A receptor [1] = target: T1, CCK-A receptor (Cavia porcellus, UniProt Q63931); test: CCK-A antagonist activity, guinea pig isolated ileum longitudinal muscle myenteric plexus (inhibition of contractile activity of CCK-8); type: cell-based
# T1 construct: guinea pig isolated ileum longitudinal muscle myenteric plexus preparation; from tissue; host or cells: guinea pig isolated ileum longitudinal muscle-myenteric plexus
# T1 sequence (Q63931 1-430): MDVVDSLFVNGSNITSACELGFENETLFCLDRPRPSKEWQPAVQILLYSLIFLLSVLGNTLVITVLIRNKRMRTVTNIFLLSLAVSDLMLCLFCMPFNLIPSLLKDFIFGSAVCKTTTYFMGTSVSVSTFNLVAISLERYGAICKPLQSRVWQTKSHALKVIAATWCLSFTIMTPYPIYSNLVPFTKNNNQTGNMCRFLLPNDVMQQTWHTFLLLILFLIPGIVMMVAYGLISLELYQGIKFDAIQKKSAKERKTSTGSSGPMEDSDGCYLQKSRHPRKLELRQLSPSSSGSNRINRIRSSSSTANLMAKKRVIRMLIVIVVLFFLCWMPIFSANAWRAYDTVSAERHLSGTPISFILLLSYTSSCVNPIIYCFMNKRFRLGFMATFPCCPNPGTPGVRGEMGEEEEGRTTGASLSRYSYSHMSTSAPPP
# Experimental: The preparation and use of guinea-pig isolated ileum longitudinal muscle-myenteric plexus has been described by K-H Buchheit et al in Nauyn-Schmeideberg's Arch. Pharmacol, (1985), 329, p36-41 and by V. L. Lucaites et al (1991) in J. Pharmacol. Exp. Ther., 256, 695-703.
# The CCK-A antagonist and CCK-B antagonist activities of compounds of the invention were determined using the guinea pig isolated ileum longitudinal muscle myenteric plexus preparation. The compounds were tested using the procedure G Dal
# Forno et al J. Pharmacol. Exp & Ther. 261-1056-1063 1992 and the pKb value for each compound was determined.
# CCK-A receptor [2] = test: CCK receptor binding, CCK-A (Pancreas Assay)
# Experimental: (§1) The greater affinity of the compounds of the invention for the CCK-B receptor over the CCK-A receptor has also been established using the CCK receptor binding assays described by G. Dal Fornos et al., J. Pharmcol. Exp & Ther. 261, 1056-1063, 1992.
# (§2) The binding affinity of the compounds of the invention for the CCK-A receptor (Pancreas Assay) and CCK-B receptor (guinea pig cortex assay) was determined using the procedure of G Dal Forno et al J. Pharmacol. Exp & Ther. 261-1056-1063. The pKi values determined with representative compounds of invention were as follows: […]
# CCK-B receptor = target: T2, CCK-B receptor (Cavia porcellus, UniProt H0VZC5); test: CCK receptor binding, CCK-B (guinea pig cortex assay)
# T2 construct: CCK-B receptor (guinea pig cortex assay); from tissue; host or cells: guinea pig cortex
# T2 sequence (H0VZC5 entry or part of it): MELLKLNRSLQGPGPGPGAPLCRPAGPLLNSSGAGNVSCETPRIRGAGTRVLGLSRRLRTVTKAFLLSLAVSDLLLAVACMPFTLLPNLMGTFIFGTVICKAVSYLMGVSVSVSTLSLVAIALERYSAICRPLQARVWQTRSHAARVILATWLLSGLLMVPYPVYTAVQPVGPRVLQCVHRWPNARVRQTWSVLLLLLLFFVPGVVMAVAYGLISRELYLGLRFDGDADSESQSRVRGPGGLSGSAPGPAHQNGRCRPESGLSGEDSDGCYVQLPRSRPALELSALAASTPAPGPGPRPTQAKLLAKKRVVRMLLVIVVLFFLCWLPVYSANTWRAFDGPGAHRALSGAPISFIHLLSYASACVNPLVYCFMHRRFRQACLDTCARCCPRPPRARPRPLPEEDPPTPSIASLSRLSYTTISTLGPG
# Experimental: as §1, §2
# mice and rats [3] = test: Toxicity / untoward effects on oral administration to mice and rats; type: in vivo; conditions: orally to mice and rats at doses exhibiting anxiolytic activity
# Text: (§3) The compounds of the invention are essentially non-toxic and therapeutically useful doses.
# mice and rats [4] = test: Anxiolytic activity, oral, mice and rats; type: in vivo; conditions: orally to mice and rats
# Text: as §3
Structure (SMILES),pKi CCK-A (CCK-A receptor [2]),further results
"CC(C)CCN1C(=O)C(NC(=O)Nc2ccccc2)C(=O)N(c2ccccc2)c2ccccc21 (single isomer, unassigned; (+)) [Example 26, (+)-N-[2,4-Dioxo-5-phenyl-1-(3-methylbut-1-yl)-2,3,4,5-tetrahydro-1H-1,5-benzodiazepin-3-yl]-N'-phenylurea]",,Kb (CCK-A receptor [1]; read-out: pKb CCK-A (converted)): ≥ 3.16 µM
"CC(C)CCN1C(=O)C(NC(=O)Nc2cccc(N(C)C)c2)C(=O)N(c2ccccc2F)c2ccccc21 (single isomer, unassigned; (+)) [Example 27, (+)-N-[2,4-Dioxo-5-(2-fluorophenyl)-1-(3-methylbut-1-yl)-2,3,4,5-tetrahydro-1H-1,5-benzodiazepin-3-yl]-N'-[3-(N,N-dimethylamino)phenyl]urea]",6.83,Ki (CCK-B receptor): 0.288 nM
"O=C(Nc1ccccc1)NC1C(=O)N(CC23CC4CC(CC(C4)C2)C3)c2ccccc2N(c2ccccc2)C1=O (single isomer, unassigned; (+)) [Example 45, (+)-N-[1-(Adamantanmethyl)-2,4-dioxo-5-phenyl-2,3,4,5-tetrahydro-1H-1,5-benzodiazepin-3-yl]-N'-phenylurea]",5.95,untoward effects (mice and rats [3]): no untoward effects were observed; anxiolytic activity (mice and rats [4]): exhibits anxiolytic activity
"CC(C)CCN1C(=O)C(NC(=O)Nc2cccc(N(C)C)c2)C(=O)N(c2ccccc2F)c2ccccc21 (centres unmarked) [Example 4, N-[2,4-dioxo-5-(2-fluorophenyl)-1-(3-methylbut-1-yl)-2,3,4,5-tetrahydro-1H-1,5-benzodiazepin-3-yl]-N'-(3-dimethylamino)phenylurea]",6.9,
"CC(C)(C)C(O)CN1C(=O)C(NC(=O)Nc2ccccc2)C(=O)N(c2ccccc2F)c2ccccc21 (centres unmarked) [Example 7A, N-[1-(3,3-Dimethyl-2-hydroxybut-1-yl)-2,4-dioxo-5-(2-fluorophenyl)-2,3,4,5-tetrahydro-1H-1,5-benzodiazepin-3-yl]-N'-phenylurea]",6.33,
"CC(C)CCN1C(=O)C(NC(=O)Nc2ccccc2)C(=O)N(c2ccccc2)c2cc(Cl)ccc21 (centres unmarked) [Example 9, N-[7-Chloro-2,4-dioxo-1-(3-methylbut-1-yl)-5-phenyl-2,3,4,5-tetrahydro-1H-1,5-benzodiazepin-3-yl]-N'-phenylurea]",6.02,
"CC(C)CCN1C(=O)C(NC(=O)Nc2ccccc2)C(=O)N(c2ccccc2)c2cc(Cl)c(Cl)cc21 (centres unmarked) [Example 11, N-[7,8-dichloro-2,4-Dioxo-1-(3-methylbut-1-yl)-5-phenyl-2,3,4,5-tetrahydro-1H-1,5-benzodiazepin-3-yl]-N'-phenylurea]",5.80,
"O=C(Nc1ccccc1)NC1C(=O)N(CC23CC4CC(CC(C4)C2)C3)c2ccccc2N(c2ccccc2)C1=O (centres unmarked) [Example 14, N-[1-(1-Adamantyl)methyl-2,4-dioxo-5-phenyl-2,3,4,5-tetrahydro-1H-1,5-benzodiazepin-3-yl]-N'-phenylurea]",6.15,
"CC(C)(C)CCN1C(=O)C(NC(=O)Nc2ccccc2)C(=O)N(c2ccccc2)c2ccccc21 (centres unmarked) [Example 16, N-[1-(3,3-Dimethylbutyl)-2,4-dioxo-5-phenyl-2,3,4,5-tetrahydro-1H-1,5-benzodiazepin-3-yl]-N'-phenylurea]",6.95,
"CC(C)CCN1C(=O)C(NC(=O)Nc2ccccc2)C(=O)N(c2ccccc2)c2ccccc21 (centres unmarked) [Example 25, N-[2,4-Dioxo-5-phenyl-1-(3-methylbut-1-yl)-2,3,4,5-tetrahydro-1H-1,5-benzodiazepin-3-yl]-N'-phenylurea]",,pKb CCK-A (CCK-A receptor [1]): < 6.0
"CN(C)c1ccc(NC(=O)NC2C(=O)N(CCC3CCCC3)c3ccccc3N(c3ccccc3F)C2=O)cc1 (centres unmarked) [Example 30, N-[1-(2-cyclopentyl-ethyl)-2,4-dioxo-5-(2-fluorophenyl)-2,3,4,5-tetrahydro-1H-1,5-benzodiazepin-3-yl]-N'-[4-(dimethylamino)phenyl]urea]",7.00,
"O=C(Nc1ccccc1)NC1C(=O)N(CC2CC3C=CC2C3)c2ccccc2N(c2ccccc2)C1=O (centres unmarked) [Example 31, N-[1-(Bicyclo[2.2.1]-5-heptene-2-ylmethyl)-2,4-dioxo-5-phenyl-2,3,4,5-tetrahydro-1H-1,5-benzodiazepin-3-yl]-N'-phenylurea]",6.76,
"O=C(Nc1cccc([N+](=O)[O-])c1)NC1C(=O)N(CC23CC4CC(CC(C4)C2)C3)c2ccccc2N(c2ccccc2)C1=O (centres unmarked) [Example 39, N-[1-(1-Adamantylmethyl)-2,4-dioxo-5-phenyl-2,3,4,5-tetrahydro-1H-1,5-benzodiazepin-3-yl]-N'-(3-nitrophenyl)urea]",6.52,
"CCOC(=O)c1cccc(NC(=O)NC2C(=O)N(CC34CC5CC(CC(C5)C3)C4)c3ccccc3N(c3ccccc3)C2=O)c1 (centres unmarked) [Example 41, N-[1-(1-Adamantylmethyl)-2,4-dioxo-5-phenyl-2,3,4,5-tetrahydro-1H-1,5-benzodiazepin-3-yl]-N'-(3-ethoxycarbonylphenyl)urea]",6.09,
